Assay results published in paper PMC3914206.

How the values were obtained:
Type in all cases: binding
Conditions in all cases: Compound Concentration 10 µM
panel of 442 kinases [1] = target: T1, panel of 442 kinases (Homo sapiens, UniProt P16234)
T1 construct: purchased KINOMEscan
Text: (§1) We assessed the selectivity of members of this scaffold using the KINOMEscan methodology across a near comprehensive panel of 442 kinases [[18,27]].

panel of 442 kinases [2] = target: T2, panel of 442 kinases (Homo sapiens, UniProt P29320)
T2 construct: purchased KINOMEscan
T2 sequence (P29320 21-983): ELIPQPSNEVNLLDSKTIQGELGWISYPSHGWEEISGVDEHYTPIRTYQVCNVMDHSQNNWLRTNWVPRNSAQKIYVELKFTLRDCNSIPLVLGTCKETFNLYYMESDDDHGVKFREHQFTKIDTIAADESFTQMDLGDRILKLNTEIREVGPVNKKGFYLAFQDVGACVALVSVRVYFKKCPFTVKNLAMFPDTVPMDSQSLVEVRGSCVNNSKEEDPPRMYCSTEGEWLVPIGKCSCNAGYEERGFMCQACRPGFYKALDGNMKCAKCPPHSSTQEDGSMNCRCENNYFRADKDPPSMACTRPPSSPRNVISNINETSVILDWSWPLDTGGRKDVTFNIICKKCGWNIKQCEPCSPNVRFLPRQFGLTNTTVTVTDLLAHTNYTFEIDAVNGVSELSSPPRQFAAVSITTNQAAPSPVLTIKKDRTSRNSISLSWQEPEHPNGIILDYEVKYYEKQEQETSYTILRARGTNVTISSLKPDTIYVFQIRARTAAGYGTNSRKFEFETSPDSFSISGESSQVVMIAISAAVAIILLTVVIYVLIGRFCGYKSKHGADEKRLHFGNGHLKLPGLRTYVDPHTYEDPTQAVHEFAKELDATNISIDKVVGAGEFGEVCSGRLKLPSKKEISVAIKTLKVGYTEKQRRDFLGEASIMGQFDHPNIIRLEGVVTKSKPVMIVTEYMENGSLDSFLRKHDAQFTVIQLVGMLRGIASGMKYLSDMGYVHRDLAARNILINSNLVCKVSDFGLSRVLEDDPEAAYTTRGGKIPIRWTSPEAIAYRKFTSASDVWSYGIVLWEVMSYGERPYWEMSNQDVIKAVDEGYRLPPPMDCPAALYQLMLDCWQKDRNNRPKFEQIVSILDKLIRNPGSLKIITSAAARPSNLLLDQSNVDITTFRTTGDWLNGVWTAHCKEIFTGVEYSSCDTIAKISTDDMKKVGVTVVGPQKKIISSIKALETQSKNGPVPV
Text: as §1

panel of 442 kinases [3] = target: T3, panel of 442 kinases (Homo sapiens, UniProt Q08345)
T3 construct: purchased KINOMEscan
Text: as §1

T3 sequence (Q08345 19-913): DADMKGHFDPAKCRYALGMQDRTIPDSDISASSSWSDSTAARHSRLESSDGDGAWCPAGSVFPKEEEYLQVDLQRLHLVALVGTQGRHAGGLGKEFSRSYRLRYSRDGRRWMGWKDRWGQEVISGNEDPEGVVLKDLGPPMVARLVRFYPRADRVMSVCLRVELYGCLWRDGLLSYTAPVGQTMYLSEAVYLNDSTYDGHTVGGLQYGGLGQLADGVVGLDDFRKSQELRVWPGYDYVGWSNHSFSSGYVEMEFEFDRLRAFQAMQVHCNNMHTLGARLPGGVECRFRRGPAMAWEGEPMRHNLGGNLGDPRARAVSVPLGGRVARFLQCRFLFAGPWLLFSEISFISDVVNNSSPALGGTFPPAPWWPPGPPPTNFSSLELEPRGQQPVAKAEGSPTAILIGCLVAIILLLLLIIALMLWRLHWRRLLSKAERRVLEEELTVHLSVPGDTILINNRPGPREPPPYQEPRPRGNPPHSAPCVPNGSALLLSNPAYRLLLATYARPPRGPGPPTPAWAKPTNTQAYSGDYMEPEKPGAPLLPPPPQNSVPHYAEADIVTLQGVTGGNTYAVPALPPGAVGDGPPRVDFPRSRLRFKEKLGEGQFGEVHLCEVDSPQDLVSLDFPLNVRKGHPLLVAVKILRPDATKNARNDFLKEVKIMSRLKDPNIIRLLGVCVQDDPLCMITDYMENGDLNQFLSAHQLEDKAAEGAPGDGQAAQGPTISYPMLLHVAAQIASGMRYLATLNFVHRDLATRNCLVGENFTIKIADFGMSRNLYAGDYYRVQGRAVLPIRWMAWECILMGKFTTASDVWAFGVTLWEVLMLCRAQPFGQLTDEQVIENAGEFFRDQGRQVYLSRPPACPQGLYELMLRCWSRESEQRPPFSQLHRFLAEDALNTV
T1 sequence (P16234 24-1089): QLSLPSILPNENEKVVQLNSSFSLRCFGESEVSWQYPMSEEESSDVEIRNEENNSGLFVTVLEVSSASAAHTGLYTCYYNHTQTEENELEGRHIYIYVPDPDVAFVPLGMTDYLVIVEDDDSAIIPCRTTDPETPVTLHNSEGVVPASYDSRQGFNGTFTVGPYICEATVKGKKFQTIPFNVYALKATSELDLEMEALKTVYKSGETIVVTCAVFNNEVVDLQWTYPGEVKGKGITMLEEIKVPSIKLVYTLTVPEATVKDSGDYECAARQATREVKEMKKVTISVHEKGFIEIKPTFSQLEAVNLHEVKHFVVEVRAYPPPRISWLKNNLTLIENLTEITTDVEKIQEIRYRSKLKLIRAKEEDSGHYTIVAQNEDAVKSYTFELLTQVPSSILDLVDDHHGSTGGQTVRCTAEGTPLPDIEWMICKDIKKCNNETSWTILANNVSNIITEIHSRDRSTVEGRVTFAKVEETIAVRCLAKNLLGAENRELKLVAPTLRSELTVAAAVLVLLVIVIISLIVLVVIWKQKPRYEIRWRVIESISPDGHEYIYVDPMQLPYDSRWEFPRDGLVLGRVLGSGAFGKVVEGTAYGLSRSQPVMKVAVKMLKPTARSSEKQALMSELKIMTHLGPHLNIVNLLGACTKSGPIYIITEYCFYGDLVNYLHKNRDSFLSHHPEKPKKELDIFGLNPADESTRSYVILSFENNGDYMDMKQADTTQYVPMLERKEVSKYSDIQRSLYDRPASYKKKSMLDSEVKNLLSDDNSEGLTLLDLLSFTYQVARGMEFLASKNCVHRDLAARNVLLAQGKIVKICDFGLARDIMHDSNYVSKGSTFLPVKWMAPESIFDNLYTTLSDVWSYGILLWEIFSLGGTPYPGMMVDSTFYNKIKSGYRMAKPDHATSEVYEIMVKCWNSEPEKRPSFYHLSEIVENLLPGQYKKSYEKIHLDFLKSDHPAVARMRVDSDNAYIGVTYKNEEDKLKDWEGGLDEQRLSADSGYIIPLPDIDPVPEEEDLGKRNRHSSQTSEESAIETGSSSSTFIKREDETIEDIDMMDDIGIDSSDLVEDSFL

COc1cc(C(=O)N2CCC(N3CCN(C)CC3)CC2)ccc1Nc1ncc2c(n1)N(C)c1ccccc1C(=O)N2C [15 (LRRK2-IN-1)]
KINOMEscan: PDGFRA (panel of 442 kinases [1]): 100 | KINOMEscan: EPHA3 (panel of 442 kinases [2]): 100 | KINOMEscan: DDR1 (panel of 442 kinases [3]): 100

CCOc1cc(C(=O)N2CCC(N3CCN(C)CC3)CC2)ccc1Nc1ncc2c(n1)N(C1CCCC1)c1ccccc1C(=O)N2C [Compound 26]
KINOMEscan: PDGFRA (panel of 442 kinases [1]): 100 | KINOMEscan: EPHA3 (panel of 442 kinases [2]): 95 | KINOMEscan: DDR1 (panel of 442 kinases [3]): 100

COc1cc(C(=O)N2CCC(N3CCN(C)CC3)CC2)ccc1Nc1ncc2c(n1)N1CCc3cccc(c31)C(=O)N2C [Compound 24]
KINOMEscan: EPHA3 (panel of 442 kinases [2]): 91 | KINOMEscan: DDR1 (panel of 442 kinases [3]): 67

COc1cc(C(=O)N2CCC(N3CCN(C)CC3)CC2)ccc1Nc1ncc2c(n1)N(C1CCCC1)c1ccccc1C(=O)N2C [Compound 25, 11-cyclopentyl-2-((2-methoxy-4-(4-(4-methylpiperazin-1-yl)piperidine-1-carbonyl)phenyl)amino)-5-methyl-5H-benzo[e]pyrimido[5,4-b][1,4]diazepin-6(11H)-one]
KINOMEscan: PDGFRA (panel of 442 kinases [1]): 100 | KINOMEscan: EPHA3 (panel of 442 kinases [2]): 100 | KINOMEscan: DDR1 (panel of 442 kinases [3]): 98
